Marks after values point to notes of the source that are not given here.
How the values were obtained:
CD-1 mice [1] = assay: hEPO expression in serum after IV lipid nanoparticles with hEPO mRNA, CD-1 mice; assay type: in vivo; settings: LNP with DSPC, cholesterol, Compound I; for Mean 6 hr hEPO Concentration: serum 6 hours after injection
Protocol: To assess potency of expression and metabolic stability of lipids of the disclosure, hepatocyte protein expression (hEPO) was measured following administration to mice of a nanoparticle of the disclosure.
Lipid nanoparticles including DSPC as a phospholipid, cholesterol as a structural lipid, Compound I as a PEG lipid, an ionizable amino lipid of Formula (II), and an mRNA encoding hEPO were intravenously administered to CD-1 mice. The concentration of hEPO in serum was tested at 6 hours after injection.

CD-1 mice [2] = assay: Parent lipid remaining in liver at 24 h, CD-1 mice (hEPO mRNA LNPs); assay type: in vivo; settings: for Approx. Percent Total Dose of Parent Lipid Remaining at 24 h: calculation assumes a 25 g mouse with a 1.5 g liver

Row | Compound | hEPO AUC (CD-1 mice [1]) | Mean 6 hr hEPO Concentration (CD-1 mice [1]) [mIU/mL] | Parent Lipid Remaining (nmol/g liver tissue) at 24 h (CD-1 mice [2]) [nmol/g liver tissue] | Approx. Percent Total Dose of Parent Lipid Remaining at 24 h (CD-1 mice [2])
1 | CCCCCCCCC(CCCCCCCC)OC(=O)CCCCCCCN(CCCCCCCC(=O)OCCC(CCCC)CCCCCC)CCCNc1c(NC)c(=O)c1=O (stereo not drawn) [Compound 20] | 2.13E+07 | 1414856 | 65 ± 5 | 67%
2 | CCCCCCCCC(CCCCCCCC)OC(=O)CCCCCCCN(CCCCCCCC(=O)OCCC1CCC(CC)C1)CCCNc1c(NC)c(=O)c1=O (stereo not drawn) [Compound 40] | 4.64E+06 | 303957 | 3 ± 0.3 | 3%
3 | CCCCCCC(CCCCCC)OC(=O)CCCCCCCN(CCCCCCCC(=O)OCCC(CCCC)CCCC)CCCNc1c(NC)c(=O)c1=O [Compound 60] | 1.42E+07 | 1031398 | 8.5 ± 0.6 | 9 ± 0.8%
4 | CCCCCC(CCCCC)OC(=O)CCCCCCCN(CCCCCCCC(=O)OCCC(CCC)CCC)CCCNc1c(NC)c(=O)c1=O [Compound 65] | 1.02E+07 | 734054 | 0.9 ± 0.3 | 0.9 ± 0.06%
5 | CCCCCC(CCCCC)CCOC(=O)CCCCCCCN(CCCCCCCC(=O)OC(CCCCC)CCCCC)CCCNc1c(NC)c(=O)c1=O [Compound 57] | 1.60E+07 | 1238977 | 12 ± 1 | 13%
6 | CCCCCCCCC(CCCCCC)COC(=O)CCCCCN(CCCCCCCC(=O)OC(CC)CCCCCCCC)CCCNc1c(NC)c(=O)c1=O (stereo not drawn) [Compound 15] | 4.31E+07 | 2933644 | 51 ± 4 | 53%
7 | CCCCCCCCC(CCCCCCCC)OC(=O)CCCCCCCN(CCO)CCCCCCCC(=O)OCCC1CCC(CC)C1 (stereo not drawn) [Compound 37] | 1.25E+06 | 85052 | <0.1 | <0.1%
8 | CCCCCCCCC(CCCCCCCC)OC(=O)CCCCCCCN(CCO)CCCCCCCC(=O)OCCC(CCCCCC)CCCCCC [Compound 21] | 7.29E+06 | 458772 | 13 ± 2 | 9%
9 | CCCCCCCCC(CCCCCCCC)OC(=O)CCCCCCCN(CCCCCCCC(=O)OCCC(CCCCCC)CCCCCC)CCCNc1c(NC)c(=O)c1=O [Compound 26] | 7.52E+06 | 496951 | 141 ± 15 | >95%^b
10 | CCCCCCCCC(CCCCCCCC)OC(=O)CCCCCCCN(CCCCCCCC(=O)OCCCC(CCCCC)CCCCC)CCCNc1c(NC)c(=O)c1=O [Compound 32] | 1.63E+06 | 111656 | 69 ± 17 | 71%
11 | CCCCCCC(CCCCCC)CCOC(=O)CCCCCCCN(CCCCCCCC(=O)OCCC(CCCCCC)CCCCCC)CCCNc1c(NC)c(=O)c1=O [Compound 28] | 1.44E+07 | 938332 | 58 ± 7 | 60%
12 | CCCCCCCC(CCCCCCC)OC(=O)CCCCCCCN(CCCCCCCC(=O)OCCC(CCC)CCC)CCCNc1c(NC)c(=O)c1=O [Compound 63] | 9.66E+06 | 692334 | 8.9 ± 2.8 | 9 ± 3%^
13 | CCCCCCCCC(CCCCCCCC)OC(=O)CCCCCCCN(CCCCCCCC(=O)OCC(CCCCCCC)C(C)C)CCCNc1c(NC)c(=O)c1=O (stereo not drawn) [Compound 19] | 3.11E+07 | 2089101 | 73 ± 6 | 75%
14 | CCCCCCCCC(CCCCCCCC)OC(=O)CCCCCCCN(CCO)CCCCCCCC(=O)OCCCC(CCCCC)CCCCC [Compound 31] | 7.72E+06 | 517841 | 2 ± 0.6 | <0.1%
15 | CCCCCC(CCCCC)CCOC(=O)CCCCCCCN(CCCCCCCC(=O)OCCC(CCC)CCC)CCCNc1c(NC)c(=O)c1=O [Compound 51] | 1.31E+07 | 1556494 | 4 ± 0.6 | 4%
16 | CCCCCCC(CCCCCC)CCOC(=O)CCCCCCCN(CCO)CCCCCCCC(=O)OCCC(CCCCCC)CCCCCC [Compound 23] | 1.40E+07 | 847586 | 24 ± 3 | 18%
17 | CCCC(CCC)CCOC(=O)CCCCCCCN(CCCCCCCC(=O)OCCC(CCC)CCC)CCCNc1c(NC)c(=O)c1=O [Compound 53] | 6.63E+03 | 130324 | <1 | <1%
18 | CCCCCCCCC(CCCCCCCC)OC(=O)CCCCCCCN(CCCCCCCC(=O)OCCC(CCCCCC)C(C)C)CCCNc1c(NC)c(=O)c1=O (stereo not drawn) [Compound 17] | 2.61E+07 | 1777875 | 35 ± 5 | 36%
19 | CCCCCC(CCCCC)OC(=O)CCCCCCCN(CCO)CCCCCCCC(=O)OCCC(CCC)CCC [Compound 68] |  | 488014 |  | 
20 | CCCCCCCCC(CCCCCCCC)OC(=O)CCCCCCCN(CCCO)CCCCCCCC(=O)OCCC(CCCC)CCCC [Compound 49] |  | 2385524 |  | 
21 | CCCCCCCCC(CCCCCCCC)OC(=O)CCCCCCCN(CCCCCCCC(=O)OCCC(CCCCC)CCCCC)CCCNc1c(NC)c(=O)c1=O [Compound 29] | 1.23E+07 | 808734 | 66 ± 16 | 68%
22 | CCCCCC(CCCCC)CCCOC(=O)CCCCCCCN(CCO)CCCCCCCC(=O)OCCCC(CCCCC)CCCCC [Compound 33] | 5.89E+06 | 389395 | 0.5 ± 0.3 | <0.1%
23 | CCCCCCCCC(CCCCCCCC)OC(=O)CCCCCCCN(CCCCCCCC(=O)OCCC1CCC(CCC)CC1)CCCNc1c(NC)c(=O)c1=O (stereo not drawn) [Compound 39] | 1.94E+06 | 129750 | 4 ± 1 | 4%
24 | CCCCCCCCC(CCCCCCCC)OC(=O)CCCCCCCN(CCCCO)CCCCCCCC(=O)OCCC(CCCC)CCCC [Compound 50] |  | 2617164 |  | 
25 | CCCCC(CCCC)CCOC(=O)CCCCCCCN(CCO)CCCCCCCC(=O)OCCC(CCCC)CCCC [Compound 69] |  | 1572094 |  | 
26 | CCCCCC(CCCCC)CCOC(=O)CCCCCCCN(CCCO)CCCCCCCC(=O)OCCC(CCCCC)CCCCC [Compound 42] |  | 1428145 |  | 
27 | CCCCCC(CCCCC)CCOC(=O)CCCCCCCN(CCO)CCCCCCCC(=O)OCCC(CCC)CCC [Compound 67] |  | 969620 |  | 
28 | CCCCCC(CCCCC)CCOC(=O)CCCCCCCN(CCCCO)CCCCCCCC(=O)OCCC(CCCCC)CCCCC [Compound 44] |  | 1273871 |  | 
29 | CCCCCC(CCCCC)OC(=O)CCCCCCCN(CCO)CCCCCCCC(=O)OCCC(CCCC)CCCC [Compound 70] |  | 1479577 |  | 
30 | CCCCCCC(CCCCCC)OC(=O)CCCCCCCN(CCO)CCCCCCCC(=O)OCCC(CCC)CCC [Compound 71] |  | 1921281 |  | 

From patent publication US20240189449A1, “LIPID NANOPARTICLES AND POLYNUCLEOTIDES ENCODING ORNITHINE TRANSCARBAMYLASE FOR THE TREATMENT OF ORNITHINE TRANSCARBAMYLASE DEFICIENCY” (ModernaTX, Inc., priority 2021, published 2024)
